These results are taken from US20160346225A1, “METHOD OF PREPARING INGESTIBLE MULTI-SHEET UNIT HAVING PREDETERMINED FUNCTIONS AND COMBINATIONS” (Purdue Research Foundation, priority 2011, published 2016).

For data set [1] the following is noted: in the dissolution medium; cited from earlier work.
Data set [2] in a line: dissolution of griseofulvin from particle-containing polymer films. In kind it is physicochemical. The note with it: for dissolution profile as a function of film thickness: FIG. 5D. From the text:
A 10 micron film can be configured with the film is a single layer of particles that are held together by the polymer sheet, where the particles may or may not be larger in diameter than the film thickness. In one example, a films can be on the order of 100 microns. However, the film can be as thin as roughly the size of the largest particles.

Turning to `COC1=CC(=O)C[C@@H](C)[C@]12Oc1c(Cl)c(OC)cc(OC)c1C2=O` [griseofulvin], in data set [1], the solubility result is reported as “poorly-soluble”. In data set [2] (about 72% (w/w) drug load in the film, FIG. 7), the “dissolution of drug from immobilized particles at high drug load” value was “enhanced dissolution of drug from the immobilized particles is still observed”. The “drug release rate from film matrix” value in data set [2] (film matrix (HPMC or alginate) vs same type of particles (API) free from polymer, same area of exposure, FIG. 6) is “accelerated drug release”. Also, the “dissolution profile as a function of film thickness” value was “initially increase the dissolution profile” in data set [2] (film thickness increased from 10 microns to 20 microns) and “significantly decreases the dissolution profile” in data set [2] (film thickness increased up to 70 microns). The “drug release rate as a function of drug load in the film” value in data set [2] (range of drug loading percentages, FIG. 7) is on record as “increases with drug load”.
